Data on 1 molecule can be found in patent US20220168427A1 (Ranok Therapeutics (Hangzhou) Co. Ltd., priority 2019, published 2022).

Data set [1] deals with HSP90 client proteins (ERBB2, IGF1R, EGFR, RAF1). Description: HSP90 Client Protein Degradation Flow Cytometry Assay, all clients together. Format: cell-based, human. Conditions: versus 59 nM for BRD4 degradation by western blotting in MV4-11 cells. As for the experimental part:
(§1) MV4-11 cells were plated in a 24-well tissue culture plate at a density of 350,000 cells/450 μL/well and incubated in 37° C./5% CO2 for 1 hr. Cells were then treated with compounds at various concentrations and incubated in 37° C./5% CO2 for 24 hr. Cells were harvested, washed once, counted and 200 μL of 1% paraformaldehyde/PBS was added and incubated for 15 min at room temperature. 200 μL of 1×PBS/0.4% Triton X-100 was added and incubated for 15 min at 4° C. Cells were washed three times and resuspended in 50 μL of 1×PBS/0.2% Triton X-100. 2 μL/10^6 cells of anti-BRD4 antibody (ABCAM, #128874) was added and mixed by pipetting up and down. Cells were incubated for 30 min at room temperature in the dark, washed three times and resuspended in 50 μL of 1×PBS/0.2% Triton X-100. Goat anti-rabbit IgG H&L antibody (1:2000 dilution) was added and mixed by pipetting up and down and incubated for 30 min at room temperature in the dark. Finally, cells were washed three times and resuspended in 200 μL of PBS for flow cytometric analysis.
Similar flow cytometry experiments for ERBB2 in BT-474 human breast carcinoma cells (ATCC, #HTB-20) and IGF1R, EGFR and RAF1 in HEK-293 human embryonic kidney (ATCC, #CRL-1573) were performed using anti-ERBB2 (R&D, #FAB1129P), anti-IGF1R (Cell Signaling Technology, #9750), anti-EGFR (Cell Signaling Technology, #139690) and anti-RAF1 (ABCAM, #ab181115) antibodies. […]

Data set [2] can be described thus: Pharmacokinetics and Tissue Distribution in the MV4-11 xenograft model. It is filed as in vivo, mice. Conditions: female, CB-17 SCID, mouse, 5 mg/kg single intravenous dose. As for the experimental part:
Pharmacokinetics and Tissue Distribution
15 female CB-17 SCID mice (treated in accordance with AAALAC animal welfare guidelines) were weighed and administered 5 mg/kg of compound 074 by a single intravenous injection. 0.10 mL of blood was collected from each mouse by submandibular vein and sodium heparin was added as an anticoagulant. Samples were collected before compound administration, and at 1 hr, 6 hr 24 hr and 48 hr time points after administration, with 3 mice sampled per time point. After collection, samples were placed on ice and the animals sacrificed to collect tumor and normal tissues. The method development and analysis of all samples were performed by the analytical laboratory at Shanghai Medicilon Inc. Intra-day accuracy evaluation of samples for quality control was carried out during sample analysis and a quality control accuracy of more than 66.7% of samples was required between to be 80-120%. Pharmacokinetic parameters were calculated using Phoenix WinNonlin7.0 software.

A further data set has as its system IGF1R. In words: HSP90 Client Protein Degradation Flow Cytometry Assay, IGF1R in HEK-293 cells. It is filed as cell-based, human. As to the method:
as §1
Similar flow cytometry experiments for ERBB2 in BT-474 human breast carcinoma cells (ATCC, #HTB-20) and IGF1R, EGFR and RAF1 in HEK-293 human embryonic kidney (ATCC, #CRL-1573) were performed using anti-ERBB2 (R&D, #FAB1129P), anti-IGF1R (Cell Signaling Technology, #9750), anti-EGFR (Cell Signaling Technology, #139690) and anti-RAF1 (ABCAM, #ab181115) antibodies.

A further data set concerns the target HSP90α (Homo sapiens, UniProt P07900). Description: HSP90α Binding Fluorescent Polarization (FP) Assay. Summed up: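 Duplicate wells held BSA buffer, FITC-geldanamycin tracer, compound (3-fold dilution plate spanning 40 μM–2.0 nM) and recombinant protein diluted to 28 μg/ml before addition. Polarization read at 30, 60 and 120 min, 25 °C. Background-corrected mP values gave IC50 through a four-parameter inhibitor-response fit.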

The target in a further data set is T1, BRD4 (Homo sapiens, UniProt O60885).
T1 construct: endogenous in cells; host or cells: MV4-11
Description: BRD4 Western Blotting in MV4-11 cells. It is filed as cell-based. As to the method: Cells were then collected by centrifugation, washed one time with cold PBS, supernatants aspirated and cell pellets lysed with 4° C. RIPA lysis buffer containing a protease/phosphatase inhibitor cocktail. The total protein concentrations of cell lysates were determined by BCA Protein Assay kit. Samples were normalized for equivalent protein concentrations, 5× loading buffer added and heated to 100° C. for 10 min and cooled to room temperature. 20 μl of each sample/well was loaded on a SDS-PAGE gel and electrophoresed for 20 min at 80 V, then 120 V for 1.5 hr. Gels were then electroblotted to nitrocellulose membranes using a wet-transfer method at 250 mA for 2.5 hr. Membranes were incubated with blocking buffer for 1 hr and washed 3 times with TBST for 5 min. Then membranes were incubated with anti-BRD4 (Cell Signaling Technology, #13440) and anti-beta-Actin (Cell Signaling Technology, #3700) antibodies diluted in blocking buffer per the manufacturer's recommendation at 4° C. overnight. After washing 3 times, blots were incubated with the appropriate labeled secondary antibody for 1 hr at room temperature and washed again. Images were read on a LI-COR and the optical density values of bands determined by ImageJ software. Data was analyzed using GraphPad Prism 7.0.

As to `Cc1sc2c(c1C)C(c1ccc(Cl)cc1)=N[C@@H](CC(=O)N1CCC(CN3CCN(Cc4ccc(-n5c(O)nnc5-c5cc(C(C)C)c(O)cc5O)cc4)CC3)CC1)c1nnc(C)n1-2.Cl` [Compound 74, (S)-2-(4-(4-chlorophenyl)-2,3,9-trimethyl-6H-thieno[3,2-f][1,2,4]triazolo[4,3-a][1,4]diazepin-6-yl)-1-(4-((4-(4-(3-(2,4-dihydroxy-5-isopropylphenyl)-5-hydroxy-4H-1,2,4-triazol-4-yl)benzyl)piperazin-1-yl)methyl)piperidin-1-yl)ethan-1-one hydrochloride], the “IC50 for HSP90 clients higher than the IC50 value for BRD4 degradation” value in data set [1] is recorded as 6- to 18 fold. For the same molecule, the peak concentration (Cmax) in data set [2] (heart) was determined as 1640 ng/g; in data set [2] (liver), 5040 ng/g; in data set [2] (lung), 2030 ng/g; in data set [2] (plasma), 498 ng/mL; in data set [2] (tumor), 462 ng/g. In addition, the Tmax in data set [2] (heart), in data set [2] (liver), in data set [2] (lung), in data set [2] (plasma) and in data set [2] (tumor) was 1 h throughout. Also, the half-life was 3.7 h in data set [2] (heart); 3.37 h in data set [2] (liver); 6.94 h in data set [2] (lung); 3.92 h in data set [2] (plasma); 32.1 h in data set [2] (tumor). Moreover, the AUC(0-inf) in data set [2] (plasma) is 3020 ng·h/mL. In addition, the IC50 was 1060 nM in the data set on IGF1R and 100 to 1000 nM on HSP90α (competition with FITC-geldanamycin, read-out: HSP90 Binding Potency). The “potency in binding to HSP90, in words” value at HSP90α was “moderate potency”. At BRD4 (MV4-11 cells treated with both compound 074 and bortezomib), the “BRD4 degradation by western blotting with proteasome inhibitor bortezomib” value is listed as “BRD4 degradation was blocked”. For the same molecule, the “BRD4 degradation by western blotting” value at BRD4 (MV4-11 cells, 24 hr, 100 and 300 nM) is “BRD4 degradation was observed”. The DC50 at BRD4 (MV4-11 cells, read-out: IC50 value for BRD4 degradation determined by western blotting) was determined as 59 nM.
